In US7632971B2, “Method of crystallization of bicalutamide” (Sumitomo Chemical Company, Limited, priority 2004, dated 2009):

Columns and labels:
[1] = Particle size distribution by laser diffraction (Mastersizer 2000); type: physicochemical
Method: In the invention, Dpn is a unit referring to a particle size of crystal, and n is a value covering from 1 to 100. For example, Dp10 is defined as a diameter of the particle where particles are accumulated from the one having a smaller size and reach to the accumulated particle volume of 10%.
Add 1000 mL of water to 5 g of Triton X-100, mix well. Add 0.1 g of bicalutamide and sonicate for 15 minutes, the filter using 0.45 μm membrane filter and use this solution as the dispersant. Rinse the dispersion unit and the measurement instrument with the dispersant and replace it in the instruments with the fresh one, then measure background. After weighing, suspend about 0.05 g of bicalutamide crystals in the 20 ml of dispersant and sonicate for 5 minutes, and make up with the dispersant to 100 mL. Redisperse this suspension with a pipet and pour this sample into the dispersion unit so that an obscuration is 10.0 to 20.0%. After the stabilizing period of 12 minutes, start the measurement under the following condition. Determine 10% diameter, 50% diameter, and 90% diameter according to an integrated distribution curve to be Dp10, Dp50 and Dp90, respectively.
• Instrument model: Laser diffraction particle size analyzer Mastersizer 2000 (Malvern) • Dispersion unit: Hydro2000S • Stirrer speed of dispersion unit: 2300 rpm • Particle Refraction Index of sample: 1.670 Absorption: 0.001 • Dispersant Refraction Index: 1.330 • Analysis model: General purpose • Calculation sensitivity: Enhanced • Particle shape: Irregular • Size range: 0.020-2000.000 μm • Measurement integration period: 12 seconds • Backgroupd integration period: 12 seconds (Specific Surface Area)
With using the above-mentioned laser diffraction particle size distribution analyzer (Mastersizer 2000 (Malvern)), a particle size distribution was measured under the same conditions mentioned above.

[2] = Specific surface area by nitrogen gas absorption (BET equation, COULTER SA3100); type: physicochemical
Method: The specific surface area in the invention is defined as a surface area per 1 g of particles, and represented by a value measured by the following method.
A sample is deaerated overnight in a vacuum dryer at 40° C. as a pre-treatment before being subjected to a measurement. The measurement is conducted as follows: a given amount of an absorbing gas (nitrogen gas) is absorbed by a sample, the values of a relative pressure (P/PO) and an absorbed gas volume are determined in each absorption step, and then a specific surface area is calculated according to the BET equation using the values. COULTER™ SA3100™ Series Surface Area and Pore size Analyzer is used as a measurement device. After measuring the sample mentioned above, the specific surface area at around the relative pressure of 0.05 to 0.2 is calculated.
Furthermore, the specific surface area of the crystals obtained by one time milling was measured with the COULTER™ SA3100™ Series Surface Area and Pore size Analyzer mentioned above under the same conditions mentioned above.

[3] = crystals as obtained by crystallization, not milled
[4] = crystals obtained by two times milling (CT-401 ATOMIZER)
[5] = crystals obtained by one time milling (spiral jet-mill 50AS)

| Dp10 (particle size) [1, 3] [μm] | Dp50 (particle size) [1, 3] [μm] | Dp90 (particle size) [1, 3] [μm] | Dp10 (particle size) [1, 4] [μm] | Dp50 (particle size) [1, 4] [μm] | Dp90 (particle size) [1, 4] [μm] | specific surface area [2, 3] [m^2/g] | specific surface area ([2]; crystals obtained by one time milling, relative pressure 0.05 to 0.2) [m^2/g] | Dp10 (particle size) [1, 5] [μm] | Dp50 (particle size) [1, 5] [μm] | Dp90 (particle size) [1, 5] [μm] | SMILES |
| --- | --- | --- | --- | --- | --- | --- | --- | --- | --- | --- | --- |
| 45.6 | 90.7 | 177.6 | 3.1 | 15.9 | 57.8 |  |  |  |  |  | CC(O)(CS(=O)(=O)c1ccc(F)cc1)C(=O)Nc1ccc(C#N)c(C(F)(F)F)c1 (centres unmarked) [Comparative Example 1, bicalutamide] |
| 39.5 | 119.6 | 273.1 |  |  |  | 0.2 |  |  |  |  | CC(O)(CS(=O)(=O)c1ccc(F)cc1)C(=O)Nc1ccc(C#N)c(C(F)(F)F)c1 (centres unmarked) [Comparative Example 2, bicalutamide] |
| 5.3 | 14.5 | 30.6 |  |  |  |  | 1.8 | 1.8 | 4.2 | 10.5 | CC(O)(CS(=O)(=O)c1ccc(F)cc1)C(=O)Nc1ccc(C#N)c(C(F)(F)F)c1 (centres unmarked) [Example 1, bicalutamide] |
| 45.6 | 90.7 | 177.6 |  |  |  |  |  |  |  |  | CC(O)(CS(=O)(=O)c1ccc(F)cc1)C(=O)Nc1ccc(C#N)c(C(F)(F)F)c1 (centres unmarked) [bicalutamide] |
